Reference: patent publication US11081236B2, “Diagnostic and therapeutic methods for the treatment of breast cancer” (GENENTECH, INC., priority 2018, dated 2021)

Key:
Type in all cases: cell-based
[1] = system: HCC1500; experiment: RNA sequencing after E2 or DMSO treatment, HCC1500
Description: (§1) To derive a transcriptional signature of ER pathway activity, RNA sequencing was performed on seven breast cancer cell lines following treatment with either DMSO or 1 μM estradiol (E2) for 24 hours. Briefly, RNA libraries for cell lines were made with TRUSEQ® RNA sample preparation kit (ILLUMINA®) according to the manufacturer's protocol. The libraries were sequenced on an ILLUMINA® Hi Seq 2000, using 1-4 lanes per cell line. RNA sequencing (RNA-seq) data were analyzed with HTSeqGenie (R package version 3.14.0) in BioConductor (Huber et al. Nature Methods. 112:115-21, 2015) as follows: reads were trimmed to 75 base pairs (bp), filtered for quality and rRNA/adapter contamination, and aligned to the reference genome GRCh38 using GSNAP (Wu et al. Bioinforma Oxf Engl. 26:873-81, 2010). Gene expression was quantified as Reads per Kilobase of exon model per Million mapped reads normalized by size factor (nRPKM), defined as number of reads aligning to a gene in a sample/(total number of uniquely mapped reads for that sample x gene length x size factor). Genes without gene symbol and genes of uncertain function (LOC and Corf symbols) were excluded.

[2] = system: EFM19; experiment: RNA sequencing after E2 or DMSO treatment, EFM19
Description: as §1

[3] = system: BT474; experiment: RNA sequencing after E2 or DMSO treatment, BT474
Description: as §1

[4] = system: MCF7; experiment: RNA sequencing after E2 or DMSO treatment, MCF7
Description: as §1

[5] = gene BAMBI, 1 μM E2 24 hours vs DMSO
[6] = gene BCAS1, 1 μM E2 24 hours vs DMSO
[7] = gene CCNG2, 1 μM E2 24 hours vs DMSO
[8] = gene DDEE4, 1 μM E2 24 hours vs DMSO
[9] = gene EGLN3, 1 μM E2 24 hours vs DMSO
[10] = gene FAM1718, 1 μM E2 24 hours vs DMSO
[11] = gene GRM4, 1 μM E2 24 hours vs DMSO
[12] = gene IL1R1, 1 μM E2 24 hours vs DMSO
[13] = gene LIPH, 1 μM E2 24 hours vs DMSO
[14] = gene NBEA, 1 μM E2 24 hours vs DMSO
[15] = gene PNPLA7, 1 μM E2 24 hours vs DMSO
[16] = gene PSCA, 1 μM E2 24 hours vs DMSO
[17] = gene SEMASE, 1 μM E2 24 hours vs DMSO
[18] = gene SSPO, 1 μM E2 24 hours vs DMSO
[19] = gene STON1, 1 μM E2 24 hours vs DMSO
[20] = gene TGFB3, 1 μM E2 24 hours vs DMSO
[21] = gene TP53INP1, 1 μM E2 24 hours vs DMSO
[22] = gene TP53INP2, 1 μM E2 24 hours vs DMSO

SMILES: C[C@]12CC[C@@H]3c4ccc(O)cc4CC[C@H]3[C@@H]1CC[C@@H]2O [Compound E2, estradiol]
- Log2 FC E2 vs no E2: BAMBI [1, 5]: −1.438
- Log2 FC E2 vs no E2: BCAS1 [1, 6]: −2.105
- Log2 FC E2 vs no E2: CCNG2 [1, 7]: −1.525
- Log2 FC E2 vs no E2: DDEE4 [1, 8]: −1.865
- Log2 FC E2 vs no E2: EGLN3 [1, 9]: −2.504
- Log2 FC E2 vs no E2: FAM1718 [1, 10]: −0.683
- Log2 FC E2 vs no E2: GRM4 [1, 11]: −1.071
- Log2 FC E2 vs no E2: IL1R1 [1, 12]: −1.943
- Log2 FC E2 vs no E2: LIPH [1, 13]: −1.384
- Log2 FC E2 vs no E2: NBEA [1, 14]: −1.190
- Log2 FC E2 vs no E2: PNPLA7 [1, 15]: −1.376
- Log2 FC E2 vs no E2: PSCA [1, 16]: −1.726
- Log2 FC E2 vs no E2: SEMASE [1, 17]: −1.058
- Log2 FC E2 vs no E2: SSPO [1, 18]: −1.304
- Log2 FC E2 vs no E2: STON1 [1, 19]: −1.279
- Log2 FC E2 vs no E2: TGFB3 [1, 20]: −1.214
- Log2 FC E2 vs no E2: TP53INP1 [1, 21]: −1.777
- Log2 FC E2 vs no E2: TP53INP2 [1, 22]: −1.073
- Log2 FC E2 vs no E2: BAMBI [2, 5]: −1.554
- Log2 FC E2 vs no E2: BCAS1 [2, 6]: −2.189
- Log2 FC E2 vs no E2: CCNG2 [2, 7]: −1.442
- Log2 FC E2 vs no E2: DDEE4 [2, 8]: −1.101
- Log2 FC E2 vs no E2: EGLN3 [2, 9]: −1.008
- Log2 FC E2 vs no E2: FAM1718 [2, 10]: −1.910
- Log2 FC E2 vs no E2: GRM4 [2, 11]: −1.141
- Log2 FC E2 vs no E2: IL1R1 [2, 12]: −2.327
- Log2 FC E2 vs no E2: LIPH [2, 13]: −1.844
- Log2 FC E2 vs no E2: NBEA [2, 14]: −1.105
- Log2 FC E2 vs no E2: PNPLA7 [2, 15]: −0.901
- Log2 FC E2 vs no E2: PSCA [2, 16]: −1.593
- Log2 FC E2 vs no E2: SEMASE [2, 17]: −1.100
- Log2 FC E2 vs no E2: SSPO [2, 18]: −0.605
- Log2 FC E2 vs no E2: STON1 [2, 19]: −1.500
- Log2 FC E2 vs no E2: TGFB3 [2, 20]: −1.350
- Log2 FC E2 vs no E2: TP53INP1 [2, 21]: −1.461
- Log2 FC E2 vs no E2: TP53INP2 [2, 22]: −1.373
- Log2 FC E2 vs no E2: BAMBI [3, 5]: −1.153
- Log2 FC E2 vs no E2: BCAS1 [3, 6]: −1.110
- Log2 FC E2 vs no E2: CCNG2 [3, 7]: −0.935
- Log2 FC E2 vs no E2: DDEE4 [3, 8]: −0.862
- Log2 FC E2 vs no E2: EGLN3 [3, 9]: −0.118
- Log2 FC E2 vs no E2: FAM1718 [3, 10]: −1.279
- Log2 FC E2 vs no E2: GRM4 [3, 11]: −1.883
- Log2 FC E2 vs no E2: IL1R1 [3, 12]: −1.490
- Log2 FC E2 vs no E2: LIPH [3, 13]: −0.804
- Log2 FC E2 vs no E2: NBEA [3, 14]: −0.346
- Log2 FC E2 vs no E2: PNPLA7 [3, 15]: −1.427
- Log2 FC E2 vs no E2: PSCA [3, 16]: −1.956
- Log2 FC E2 vs no E2: SEMASE [3, 17]: −1.101
- Log2 FC E2 vs no E2: SSPO [3, 18]: −1.739
- Log2 FC E2 vs no E2: STON1 [3, 19]: −0.650
- Log2 FC E2 vs no E2: TGFB3 [3, 20]: −0.304
- Log2 FC E2 vs no E2: TP53INP1 [3, 21]: −1.496
- Log2 FC E2 vs no E2: TP53INP2 [3, 22]: −2.069
- Log2 FC E2 vs no E2: BAMBI [4, 5]: −0.571
- Log2 FC E2 vs no E2: BCAS1 [4, 6]: −0.981
- Log2 FC E2 vs no E2: CCNG2 [4, 7]: −1.267
- Log2 FC E2 vs no E2: DDEE4 [4, 8]: −1.080
- Log2 FC E2 vs no E2: EGLN3 [4, 9]: −1.090
- Log2 FC E2 vs no E2: FAM1718 [4, 10]: −1.287
- Log2 FC E2 vs no E2: GRM4 [4, 11]: −1.106
- Log2 FC E2 vs no E2: IL1R1 [4, 12]: −2.160
- Log2 FC E2 vs no E2: LIPH [4, 13]: −1.170
